# Assay results: PubChem BioAssay (NCI)
#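 48-hour exposure; five concentrations; linearly interpolated endpoints. TGI denotes the concentration required for complete inhibition of growth.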
# How the values were obtained:
# Assay in all cases: growth of human tumour cells (NCI), 48 h
# A549 NSCLC = tested on: A549 NSCLC
# ACHN renal = tested on: ACHN renal
# CAKI-1 renal = tested on: CAKI-1 renal
# CCRF-CEM leukemia = tested on: CCRF-CEM leukemia
# EKVX NSCLC = tested on: EKVX NSCLC
# HL-60(TB) leukemia = tested on: HL-60(TB) leukemia
# HOP-92 NSCLC = tested on: HOP-92 NSCLC
# LOX IMVI melanoma = tested on: LOX IMVI melanoma
# M14 melanoma = tested on: M14 melanoma
# NCI-H23 lung = tested on: NCI-H23 lung
# NCI-H522 lung = tested on: NCI-H522 lung
# OVCAR-4 ovarian = tested on: OVCAR-4 ovarian
# OVCAR-5 ovarian = tested on: OVCAR-5 ovarian
# RPMI-8226 leukemia = tested on: RPMI-8226 leukemia
# SK-MEL-28 melanoma = tested on: SK-MEL-28 melanoma
# SK-OV-3 ovarian = tested on: SK-OV-3 ovarian
# SW-620 colon = tested on: SW-620 colon
# TK-10 renal = tested on: TK-10 renal
# U251 CNS = tested on: U251 CNS
Structure (SMILES),TGI (A549 NSCLC) [µM],TGI (ACHN renal) [µM],TGI (CAKI-1 renal) [µM],TGI (CCRF-CEM leukemia) [µM],TGI (EKVX NSCLC) [µM],TGI (HL-60(TB) leukemia) [µM],TGI (HOP-92 NSCLC) [µM],TGI (LOX IMVI melanoma) [µM],TGI (M14 melanoma) [µM],TGI (NCI-H23 lung) [µM],TGI (NCI-H522 lung) [µM],TGI (OVCAR-4 ovarian) [µM],TGI (OVCAR-5 ovarian) [µM],TGI (RPMI-8226 leukemia) [µM],TGI (SK-MEL-28 melanoma) [µM],TGI (SK-OV-3 ovarian) [µM],TGI (SW-620 colon) [µM],TGI (TK-10 renal) [µM],TGI (U251 CNS) [µM]
CC1OC(n2ccc3ccc([N+](=O)[O-])cc32)C(O)C(O)C1O (stereo not drawn),> 100,> 100,> 100,> 100,> 100,> 100,> 100,> 100,> 100,> 100,> 100,> 100,> 100,> 100,> 100,> 100,> 100,> 100,> 100
COc1ccc(/C=C2\C(=O)Nc3ccccc32)cc1OC,> 100,> 100,> 100,> 100,> 100,> 100,> 100,> 100,> 100,> 100,> 100,> 100,> 100,64,> 100,> 100,> 100,> 100,> 100
O=C(CSc1nc(-c2ccccc2)c(-c2ccccc2)[nH]1)N/N=C/c1ccc([N+](=O)[O-])cc1,57.5,92.6,–,61.3,–,71.1,29.3,30.4,31.1,33.9,28.9,58.8,–,52.1,31.2,35.3,–,39.4,27.5
CC(Cc1ccc(O)cn1)(NC(=O)c1ccccc1)C(=O)O (stereo not drawn),> 100,> 100,> 100,> 100,> 100,> 100,> 100,> 100,> 100,> 100,> 100,> 100,> 100,> 100,> 100,> 100,> 100,> 100,> 100
COc1ccccc1NC(=S)NNC(=O)c1cc(-c2ccccc2)nc2ccccc12,35,65.8,39.5,6.95,–,–,36.5,–,26.1,32.3,50,85.4,47,53.6,62,42.1,84.9,> 100,43.7
Nc1c2ccccc2nc2nccnc12,> 100,> 100,> 100,> 100,> 100,> 100,> 100,> 100,> 100,> 100,> 100,> 100,> 100,> 100,> 100,> 100,> 100,> 100,> 100
N#CC(NNC(=O)Cc1ccccc1)c1ccc(O)cc1 (stereo not drawn),> 100,> 100,> 100,> 100,–,> 100,> 100,> 100,> 100,> 100,> 100,> 100,> 100,> 100,> 100,> 100,> 100,> 100,> 100
CC1(C)OP(=O)(c2ccccc2)C=C1Br (stereo not drawn),> 100,> 100,> 100,–,> 100,> 100,> 100,> 100,> 100,> 100,> 100,> 100,> 100,> 100,> 100,> 100,> 100,> 100,> 100
CC1=N/C(=C\c2ccc(N)cc2)C(=O)N1Nc1nnc(NN2C(=O)/C(=C/c3ccc(N)cc3)N=C2C)c2ccccc12,> 100,> 100,–,> 100,> 100,56.1,> 100,> 100,> 100,> 100,41.7,> 100,> 100,> 100,> 100,–,> 100,–,> 100
O=C1CCN(CCC(F)(F)C(F)(F)C(F)(F)C(F)(F)F)C(=S)N1,> 100,> 100,–,> 100,> 100,> 100,–,> 100,> 100,> 100,> 100,> 100,> 100,> 100,> 100,–,> 100,> 100,> 100
COc1ccc(-c2cc(=O)c3cc4c(cc3[nH]2)OCO4)c(OC)c1,> 100,> 100,> 100,> 100,> 100,46.3,> 100,> 100,> 100,> 100,> 100,> 100,–,> 100,> 100,> 100,> 100,> 100,> 100
